Tested on: CCRF-CEM
Test: Inhibitory activity against CEM human leukemia cell line
Format: functional, cell-based

COc1cc2oc(=O)cc(-c3ccc4c(c3)OCO4)c2c(OC)c1OC
IC50: > 50 µM
